Patent US20060105013A1, “Osteopontin-coated surfaces and methods of use” (priority 2000, published 2006)

Key:
Haundel/Labrador dogs = experiment: In vivo histology of bone healing around rhOPN coated Ti implants in dogs; design: species or system dog; settings: hollow screw Ti implants, dogs sacrificed after 4 and 8 weeks; vs uncoated
Description: Forty implants (5 per quadrant) were placed in four Haundel/Labrador dogs after extraction of four premolars (PM1-PM4) and one molar (M1), and a three month healing period. Eight hollow screw Ti implants were coated with rhOPN. Eight uncoated implants served as controls. The remaining implants were coated with 3 additional different molecules denoted as study 2, study 3, and study 4.
Prior to implant placement, core samples from the donor place were taken to histologically analyze bone quality after extractions. This procedure, also ensured a hollow space for bone ingrowth inside the coated and uncoated implants. Dogs were sacrificed after 4 and 8 weeks.
Implants were recovered for histological analysis. Each implant was sectioned vertically. The core inside the hallow implant was removed using liquid nitrogen. Decalcified sections were embedded in paraffin and stained using Herovichi's techniques to differentiate immature from mature collagen. Light microscopy at 4× and 40× magnifications were used to compare histological differences between rhOPN coated implants and uncoated implants.
Uncoated implants show normal bone healing characterized by granulation tissue and a few areas of vascularization and matrix deposition after four weeks.

HOS cells [1] = experiment: Attachment of HOS cells to plastic, glass or chromocobalt surfaces coated with OPN; type: cell-based, human; settings: 1 hour
Protocol: 500 cells were plated on coated plastic, glass or chromocobalt surfaces and incubated at 37° C. in a humidified atmosphere (95% air 5% CO2). Surfaces were coated with either human recombinant phosphorylated OPN (rhOPN) or unphosphorylated OPN. Fibronectin coated surfaces were used as a control. After 1 hour, unattached cells were removed and the surfaces were washed with PBS. The total number of attached cells was determined for the total cpm released for the surfaces after the cells were lysed with 10% TCA and solubilized in 5 ml scintillation fluid. All measurements were done in triplicates.

HOS cells [2] = experiment: Proliferation of HOS cells on plastic, glass or CrCo surfaces coated with rhOPN; type: cell-based, human
Protocol: (§1) Cell proliferation was determined by the rate of ^3H-Thymidine incorporation into DNA. Cells labeled with ^3H-Thymidine were seeded for 6 hours, then lysed with TCA. The TCA insoluble material was collected and resuspended in 0.5 N NaOH. ^3H-thymidine incorporation into TCA insoluble material was used as an index for cell proliferation. Rate of proliferation is expressed as cpm/1000 cells/6 h. All measurements were done in triplicates.
Since rhOPN promoted cell attachment to different surfaces, it was of interest to examine whether the protein had any effect on the proliferation of HOS grown on these surfaces.

HOS cells [3] = experiment: Attachment of HOS cells to Ti disks coated with rhOPN; type: cell-based, human; settings: Ti disks coated with 50 μg of rhOPN; after 30 min; vs uncoated
Protocol: HOS cells were labeled overnight with 10 uCi ^3H-thymidine, then dissociated from the plate with non-enzymatic dissociation solution (Sigma), washed 2 times with PBS, and counted. ^3H-thymidine incorporated into TCA insoluble material was determined for the cells. 5000 cells (cpm total 1000) were plated onto coated or uncoated titanium disks and the disks incubated at 37° C. for 30 min. Unadhered cells were removed, and attached cells were washed 3 times with 0.5 ml PBS. The cells were lysed with ice cold 20% TCA and the radioactivity in the TCA insoluble fraction was determined using the Scintillation counter (Begman 5000).
5000 cells (total cpm 1000) were plated on either coated or uncoated Ti disks and incubated at 37° C. in a humidified atmosphere (95% air 5% CO2). After 30 min, unattached cells were removed and the disks were washed with PBS. The total number of attached cells was determined for the total cpm released for the disks after the cells were lysed with 10% TCA and solubilized in 5 ml scintillation fluid. All measurements were done in triplicates and graphed as mean±Standard error of the mean.
The initial events following seeding of cells onto Ti surfaces include the attachment, migration and proliferation of the seeded cells. Coating Ti disks with 50 μg of rhOPN enhanced by 1100% the attachment of HOS cells to Ti disks (FIG. 2), after 30 min.

HOS cells [4] = experiment: Extracellular matrix mineralization (calcium content) of HOS cells on coated Ti disks; type: cell-based, human; settings: ascorbate and β-glycerol phosphate, uncoated did not mineralize
Protocol: HOS cells were grown either on coated or uncoated titanium disks. Media was supplemented with ascorbate and b-glycerol phosphate to stimulate the mineralization of the extracellular matrix. After two weeks, media was removed and the cells were lysed with triton. Then, all soluble components were removed and calcium content was determined using quantitative, calorimetric determination at […] (Sigma Diagnostics Calcium). Basically, calcium reacts with o-cresolphthalein, a chromogenic agent that in an alkaline medium forms a purple colored complex. The intensity of the color, measured at […], is directly proportional to calcium concentration in the sample.
HOS cells were grown either on coated or uncoated titanium disks. Media was supplemented with ascorbate and β-glycerol phosphate. After two weeks, media was removed and the cells were lysed. Then, all soluble components were removed and calcium content was determined using quantitative, colorimetric determination at 575 nm (Sigma Diagnostics Calcium). All measurements were done in triplicates and reported as mean±Standard error in the mean.
When cultured in the presence of ascorbate and β-glycerol phosphate, HOS cells grown on coated Ti disks mineralized their extracellular matrix within 2 weeks (FIG. 5) in a manner similar to HOS cells cultured on plastic. […]

HOS cells [5] = experiment: Proliferation of HOS cells on Ti disks coated with rhOPN (3H-thymidine incorporation); type: cell-based, human
Protocol: Cell proliferation was determined by the rate of ^3H-Thymidine incorporation into DNA. Cells were labeled with 10 μCi/ml of ^3H-Thymidine in DME media. After 6 hours, the cells were lysed in cold 10% trichloroacetic acid (TCA). The TCA insoluble material was collected and washed several times with 10% TCA, then resuspended in 0.5 N NaOH. ^3H-thymidine incorporation into TCA insoluble material was used as an index of cell proliferation. The material collected was mixed with scintillation liquid (Begman). The amount of radiation generated was compared between cells grown in titanium disks uncoated, and titanium disks coated with OPN.
as §1, with “h. Control group: 254,54, rhOPN group: 560,83.” for “h.”, “triplicates and reported as mean±Standard error for the mean.” for “triplicates.”
Since rhOPN promoted cell attachment to Ti disks, it was of interest to examine whether the protein had any effect on the proliferation of HOS grown on Ti disks.

rhOPN: human recombinant phosphorylated form of osteopontin
bone healing around implants (histology) (Haundel/Labrador dogs): enhanced bone healing
% total attached (HOS cells [1]; Plastic surface): 90.8%
% total attached (HOS cells [1]; chromocobalt (CrCo) surface): 69.2%
% total attached (HOS cells [1]; glass surface): 98.1%
Proliferation Rate (HOS cells [2]; CrCo): 1740 Cpm/6 h/1000 cells
Proliferation Rate (HOS cells [2]; Glass): 2740 Cpm/6 h/1000 cells
Proliferation Rate (HOS cells [2]; Plastic): 3300 Cpm/6 h/1000 cells
proliferation rate relative to cells grown on uncoated surfaces (HOS cells [2]; glass, plastic and chromocobalt surfaces): at least twice
enhancement of attachment of HOS cells to Ti disks (HOS cells [3]): 1100%
time within which HOS cells mineralized their extracellular matrix (HOS cells [4]): ≤ 2 weeks
Rate of proliferation (HOS cells [5]): 560,83 cpm/1000 cells/6 h
proliferation rate relative to cells grown on uncoated Ti disks (HOS cells [5]): approximately twice
